Source: patent publication US20160303095A1, “METHODS OF TREATING HEPATITIS B VIRUS” (Gilead Sciences, Inc., priority 2015, published 2016)
Read-outs that look alike come from different tables or passages of the source.

Legend:
[1] = tested on: HBV; assay: Determination of HBV viral RNA by RT-qPCR in PHH; assay type: cell-based; conditions: Hepatitis B virus, read-out: HBV RNA EC50
Protocol: HBV antiviral activity was assessed in primary human hepatocytes (PHH) in a 96-well format. PHH were (Life Technologies, Chicago, 11) plated on collagen coated tissue culture plates using Plating Media containing William's Medium E supplemented with 1% Penicillin/Streptomycin, 4 μg/mL human recombinant insulin, 2 mM glutamax, 15 mM Hepes, 1 μM dexamethasone and 5% fetal bovine serum (Life Technologies, Cat#A12176-01 Life Technologies, Chicago, Ill.). After a 4-hour incubation at 37° C., cells were switched to Maintenance Media (Cat#CM4000-A15564 Life Technologies, Chicago, Ill.) containing William's Medium E supplemented with 0.5% Penicillin/Streptomycin, 6.25 μg/mL human recombinant insulin, 6.25 μg/mL human transferrin, 6.25 ng/mL selenous acid, 1.25 mg/mL bovine serum albumin, 5.35 μg/mL linoleic acid, 2 mM glutamax, 15 mM Hepes, 0.1 μM dexamethasone, 2% fetal bovine serum, and 2% DMSO (Cat#D2650 Sigma, St. Louis, Mo.). On the next day, cells were infected with approximately 500 genome equivalent of selected HBV clinical isolates (21P (GTA), 32P (GTA), 91P (GTA), AD38 (GTD), 65P (GTD) or 30P (GTE); ProteoGenex, Culver City, Calif.) per cell in Maintenance Media supplemented with 4% PEG 8000 (Cat#V3011 Promega, Madison, Wis.). After 24 hour incubation cells were washed three times with William's Medium E and fed with fresh Maintenance Media. Small molecule inhibitors targeting KDMs were serially diluted in Maintenance Media and added to cells at 3 days post infection (p.i.). Media with compounds was replenished every 2-3 days. Media collected on various days was used for determination of HBsAg and HBeAg levels by MSD ELISA, and HBV RNA by qPCR. All data were converted into percentages of the untreated control and non-linear regression was performed to calculate EC50 or CC50 values.
Following the Alamar Blue measurement, media was removed and total RNA from the cells was isolated using the RNeasy 96 Kit (Cat#74182 Qiagen, Venlo, Netherlands). […] GAPDH mRNA levels were also measured by RT-qPCR to control for differences in cell number, toxicity, and RNA purification efficiency (Cat#4390849 Life Technologies, Chicago Ill.). HBV mRNA Ct values were normalized using their cognate GAPDH mRNA Ct values by the delta-delta-Ct calculation and then expressed as a percentage of the non-targeting scrambled control.

[2] = tested on: HBV; assay: Effect of the withdrawal of KDM inhibitors on HBV rebound (HBsAg, HBeAg) in PHH; assay type: cell-based, Hepatitis B Virus; conditions: for suppression of viral transcription after withdrawal: up to another 14 days after withdrawal; for HBeAg / HBsAg: PHH donor 8181, virus P21, compound removed after two weeks; for rebound of HBsAg or HBeAg secretion into media after compound withdrawal: PHH donor 8181, 21p virus, 14 days treatment, then 14 days without compound
Protocol: PHH from donor 8181 infected with 21p virus was treated with serially diluted Examples 8 or 7 for 14 days. Afterwards the compound was removed and cell cultures were replenished regularly with fresh medium but without compound for another 14 days. The levels of HBsAg and HBeAg secretion were measured during the course of the experiment to monitor the effects of compound on virus replication. No rebound of HBsAg or HBeAg secretion into media was observed after the compound withdrawal.
(§1) PHH from donor 8181 were infected with patient viruses P21 for three days before serially diluted Example 8 was added to the cells. After two weeks of the treatment the compound was removed and cells were followed for another 14 days. Activity of the compound was monitored during the course of the experiment using HBsAg and HBeAg readout. The medium with/without compound was replenished every 3-4 days. Day 0—compound was added to the infected cells.
as §1, with “PHH” for “PHH from”, “8181 was” for “8181 were”, “Example 7” for “Example 8”

[3] = tested on: H3K4me3 mark; assay: Western blot detection of H3K4me3 in HBV-infected PHHs; assay type: cell-based, human; conditions: for IC50: Homo sapiens; for chromatin H3K4Me3 mark: PHH from three different donors
Protocol: One million primary human hepatocytes (PHH) cells from three different donors were plated in 6 well collagen coated tissue culture plates in 2.5 ml Plating Media containing William's Medium E supplemented with 1% Penicillin/Streptomycin, 4 μg/mL human recombinant insulin, 2 mM glutamax, 15 mM Hepes, 1 μM dexamethasone and 5% fetal bovine serum (Life Technologies, Cat#A12176-01 Life Technologies, Chicago, Ill.) and incubated for 4-hours at 37° C. Following this incubation the media was changed to Maintenance Media (Cat#CM4000-A15564 Life Technologies, Chicago, Ill.) containing William's Medium E supplemented with 0.5% Penicillin/Streptomycin, 6.25 μg/mL human recombinant insulin, 6.25 μg/mL human transferrin, 6.25 ng/mL selenous acid, 1.25 mg/mL bovine serum albumin, 5.35 μg/mL linoleic acid, 2 mM glutamax, 15 mM Hepes, 0.1 μM dexamethasone, 2% fetal bovine serum, and 2% DMSO (Cat#D2650 Sigma, St. Louis, Mo.). The next day, cells were infected with approximately 500 genome equivalents of HBV clinical isolates 21P (GTA) or AD38 (GTD) per cell in Maintenance Media supplemented with 4% PEG 8000. Small molecule inhibitors targeting KDMs were serially diluted in Maintenance Media and added to cells at 3 days post infection (p.i.). Media with compounds was replenished every 2-3 days. Cells were harvested on day 14 p.i. by scraping the monolayer into ice-cold PBS supplemented with 5 mM Sodium Butyrate and concentrated by centrifugation at 1000×g for 5 minutes at 4° C. The cell pellets were washed twice by re-suspension in PBS and concentrated by centrifugation. The cells were lysed by suspension in Triton Extraction Buffer (TEB: PBS containing 0.5% Triton X 100 (v/v), 2 mM phenylmethylsulfonyl fluoride (PMSF), 0.02% (w/v) NaN3) at a cell density of 10^7 cells per ml and incubated on ice for 10 minutes with gentle stirring. Following centrifugation at 500 g for 10 minutes at 4° C., the supernatants were removed and the pellets were washed in 5×10^7 cells per ml TEB buffer and centrifuged as before. The pellets were re-suspended in 0.2N HCl at a cell density of 4×10^7 cells per ml and the histones were acid extracted overnight at 4° C. Samples were centrifuged at 500 g for 10 minutes at 4° C., the supematants were removed and protein content was determined using the Bradford assay. Histones were separated on a 4-20% gradient SDS gel (Mini protean TGX precast gels from BioRad), and blotted to a Hybond C-extra nitrocellulose membrane (Amersham Biosciences, RPN303E). H3K4me3 and total H3 were detected with a mixture of 1° antibodies (Cat#05-745R Millipore and Cat#14269S Cell Signaling) diluted 1:1000 in 5% skimmed milk powder in PBS containing 0.1% Tween. The western blot was washed 3 times in PBS containing 0.1% tween and incubated with 2° antibodies (Donkey anti-Mouse IRDye at 680LT Cat#926-68022 Licor Odyssey; Donkey anti-Rabbit IRDye at 800CW Cat#96-32213; Licor Odyssey) diluted 1:10000 in 5% skimmed milk powder in PBS containing 0.1% tween 20 for 1 h. Detection of infrared fluorescence was performed on Infrared Fluorescence Imaging System LI-COR. Concentration dependence of H3K4me3/H3 signal was used to calculate IC50 value for induction of H3K4 trimethylation.

[4] = read-out: IC50 (concentration causing a 50% increase in the H3K4me3 mark), Virus 21P (GTA), PHH 4239
[5] = read-out: IC50 (concentration causing a 50% increase in the H3K4me3 mark), Virus 21P (GTA), PHH 8130
[6] = read-out: IC50 (concentration causing a 50% increase in the H3K4me3 mark), Virus 21P (GTA), PHH 8181
[7] = read-out: IC50 (concentration causing a 50% increase in the H3K4me3 mark), Virus AD38 (GTD), PHH 4239
[8] = read-out: IC50 (concentration causing a 50% increase in the H3K4me3 mark), Virus AD38 (GTD), PHH 8130
[9] = read-out: IC50 (concentration causing a 50% increase in the H3K4me3 mark), Virus AD38 (GTD), PHH 8181

In the case of Nc1c(C(=O)O)ccnc1C(=O)O [Example 7, reference compound], the EC50 ([1]; HBV-infected PHH) is reported as 224 nM, the “suppression of viral transcription after withdrawal” value ([2]; 2 μM) is reported as “prolonged suppression of viral transcription” and the HBeAg ([2]; 2000 nM, Day 0) is reported as 0 ng/mL. The HBsAg ([2]; 2000 nM, Day 0) was 0 ng/mL, the HBeAg ([2]; 2000 nM, Day 5) was 9.2 ng/mL and the HBsAg ([2]; 2000 nM, Day 5) was 20.6 ng/mL. For the same compound, the HBeAg ([2]; 2000 nM, Day 10) was 25.1 ng/mL, the HBsAg ([2]; 2000 nM, Day 10) was 149.2 ng/mL and the HBeAg ([2]; 2000 nM, Day 14) was 13.7 ng/mL. For the same compound, the HBsAg ([2]; 2000 nM, Day 14) was 68.6 ng/mL, the HBeAg ([2]; 2000 nM, Day 19) was 7.0 ng/mL and the HBsAg ([2]; 2000 nM, Day 19) was 26.8 ng/mL. It also gave an HBeAg ([2]; 2000 nM, Day 24) of 5.3 ng/mL, an HBsAg ([2]; 2000 nM, Day 24) of 11.7 ng/mL and an HBeAg ([2]; 2000 nM, Day 28) of 5.4 ng/mL. For the same compound, the HBsAg ([2]; 2000 nM, Day 28) was 19.1 ng/mL and the “rebound of HBsAg or HBeAg secretion into media after compound withdrawal” value [2] was “No rebound”.
With CCOC(=O)c1ccnc(CNCC(=O)N(CC)CCN(C)C)c1 [Example 8] the IC50 [3, 4] was 30 nM, the IC50 [3, 5] was 1 nM and the IC50 [3, 6] was 70 nM. It also gave an IC50 [3, 7] of 30 nM, an IC50 [3, 8] of 3 nM and an IC50 [3, 9] of 50 nM. For the same compound, the “chromatin H3K4Me3 mark” value [3] was “increase in the chromatin H3K4Me3 mark in a dose-dependent manner”, the EC50 [1] was 100 nM and the HBeAg ([2]; 20 nM, Day 0) was 0 ng/mL. For the same compound, the HBsAg ([2]; 20 nM, Day 0) was 0 ng/mL, the HBeAg ([2]; 20 nM, Day 5) was 5.3 ng/mL and the HBsAg ([2]; 20 nM, Day 5) was 13.8 ng/mL. The HBeAg ([2]; 20 nM, Day 10) was 31 ng/mL, the HBsAg ([2]; 20 nM, Day 10) was 147 ng/mL and the HBeAg ([2]; 20 nM, Day 14) was 13 ng/mL. For the same compound, the HBsAg ([2]; 20 nM, Day 14) was 30 ng/mL, the HBeAg ([2]; 20 nM, Day 19) was 3 ng/mL and the HBsAg ([2]; 20 nM, Day 19) was 9 ng/mL. For the same compound, the HBeAg ([2]; 20 nM, Day 24) was 2.3 ng/mL, the HBsAg ([2]; 20 nM, Day 24) was 4.4 ng/mL and the HBeAg ([2]; 20 nM, Day 28) was 1.9 ng/mL. For the same compound, the HBsAg ([2]; 20 nM, Day 28) was 5.26 ng/mL, the “suppression of viral transcription after withdrawal” value ([2]; 0.08 μM) was “prolonged suppression of viral transcription” and the “rebound of HBsAg or HBeAg secretion into media after compound withdrawal” value [2] was “No rebound”.
With CCN(CCN(C)C)C(=O)CNCc1cc(C(=O)O)ccn1 [Example 9] the IC50 [3, 4] was 60 nM, the IC50 [3, 5] was 130 nM and the IC50 [3, 6] was 100 nM. The IC50 [3, 7] was 10 nM, the IC50 [3, 8] was 130 nM and the IC50 [3, 9] was 130 nM. The “chromatin H3K4Me3 mark” value [3] was “increase in the chromatin H3K4Me3 mark in a dose-dependent manner”.
